Results taken from patent publication US20150297534A1, “METHODS AND COMPOSITIONS FOR THE MEDIATION OF NSAID-INDUCED REACTIONS” (NuBioPharma, LLC, priority 2014, published 2015).

Key:
[1] = system: PGE2 formation in human whole blood; assay: PGE2 formation in LPS-stimulated human whole blood (in vitro incubation); assay type: cell-based; conditions: LPS 10 µg/ml, 18 hours; for inhibition of PGE2 formation: alone or in combination; for inhibition of PGE2 compared with 6-keto PGF1α formation (FIG. 1): varied concentrations, compound alone
Method: Determination of PGE2 and 6-keto PGF1α Formation in Human Whole Blood: Peripheral blood from healthy adult volunteers, who had not received any medication for at least 2 weeks under informed consent, was obtained by venipuncture and collected in a vacutainer blood collection tube containing heparin. Aliquots of whole blood (0.8 ml) were mixed with aspirin (50 μM) and volume was adjusted to 1 ml with PBS containing 6 mM glucose. The blood was incubated with the indicated compounds for 5 mins. at room temperature; and then stimulated with lipopolysaccharide (10 μg/ml) for 18 h at 37° C. Prostanoid formation was stopped on ice and the samples were centrifuged (2300 g, 10 min, 4° C.), and 6-keto PGF1α was quantified in the supernatant using High Sensitivity ELISA Kit for 6-keto PGF1α according to the manufacturer's protocols (Calbiochem). PGE2 was determined after solid-phase extraction, RP-HPLC and an ELISA according to the procedures of Koeberle et al. [J Pharmacol Exp Ther. 2008; 326(3):975-82].
Synergistic interaction between compounds was analyzed by the sensitization method (Harvey, R. J., J. Theor. Biol. 74: 411-437, 1978). Briefly, sensitization is measured as the ratio between observed and expected inhibition of PGE2. The expected level of activity (Ae) is calculated by Aβ=1−((1−A1)*(1−A2)) (^3) where A1 and A2 are the activities of drugs 1 and 2 alone at the concentration used in the combination (Harvey, R. J., J. Theor. Biol. 74: 411-437, 1978).

TNF-α [2] = assay: TNF-α in LPS-stimulated human whole blood (in vitro incubation); assay type: cell-based; conditions: whole human blood stimulated with LPS (FIG. 4)
Method: (§1) Determination of Inflammatory Cytokines (IL-1β & TNF-α) in Human Whole Blood: Blood from healthy adult volunteers was obtained in vacutainer blood collection tubes containing heparin as described above. Aliquots of whole blood (0.2 ml) were diluted with serum-free medium (RPMI-SF) in 24-well culture plates and volume was adjusted to 1 ml. The blood was incubated with the indicated compounds for 5 minutes at room temperature, and then stimulated with lipopolysaccharide (10 μg/ml) for 6 h at 37° C. with 5% CO2. Reaction was stopped on ice, the samples were centrifuged (2300 g, 10 mins., 4° C.), and of Inflammatory Cytokines IL-1β& TNF-α were estimated in the supernatant using High Sensitivity ELISA Kits according to the manufacturer's protocols (R&D Biosystems).

IL-1β = IL-1β in LPS-stimulated human whole blood (in vitro incubation); assay type: cell-based; conditions: whole human blood stimulated with LPS (FIG. 5); read-out: suppression of IL-1 beta, IC50
Method: as §1

TNF-α [3] = assay: Healthy volunteer study: TNF-α in LPS-stimulated blood after ibuprofen dosing; assay type: in vivo, human; conditions: volunteer 1; single oral dose 400 mg ibuprofen; blood 65 minutes after dosing, LPS stimulation (FIG. 3)
Method: as §1
Human Healthy Volunteer Clinical Study: Volunteers with acute or chronic diseases, medical history of gastrointestinal ulcers or allergy to NSAIDs were not included. Volunteers were not permitted to receive any NSAIDs for 2 weeks before and throughout the duration of the study. The study was conducted in an open-label, crossover design with a seven-day washout period between each treatment. Volunteer 1 was given a single oral dose of 400 mg of ibuprofen (Baby Advil Suspension) with 240 mL of water. Administration of the study medication was supervised by the investigator to ensure that the drug had been swallowed. […]

gastric ulcers = conditions: ibuprofen 2400 mg/day, daily use for 24 weeks, arthritis patients; cited from earlier work
PGE2 = assay: Healthy volunteer crossover study: PGE2 production in LPS-stimulated blood after oral dosing; assay type: in vivo, human; conditions: LPS stimulation
Method: Peripheral blood from healthy adult volunteers, who had not received any medication for at least 2 weeks under informed consent, was obtained by venipuncture and collected in a vacutainer blood collection tube containing heparin. Aliquots of whole blood (0.8 ml) were mixed with aspirin (50 μM) and volume was adjusted to 1 ml with PBS containing 6 mM glucose. The blood was incubated with the indicated compounds for 5 mins. at room temperature; and then stimulated with lipopolysaccharide (10 μg/ml) for 18 h at 37° C. […] PGE2 was determined after solid-phase extraction, RP-HPLC and an ELISA according to the procedures of Koeberle et al. [J Pharmacol Exp Ther. 2008; 326(3):975-82]. Human Healthy Volunteer Clinical Study: Volunteers with acute or chronic diseases, medical history of gastrointestinal ulcers or allergy to NSAIDs were not included. Volunteers were not permitted to receive any NSAIDs for 2 weeks before and throughout the duration of the study. The study was conducted in an open-label, crossover design with a seven-day washout period between each treatment. […] Administration of the study medication was supervised by the investigator to ensure that the drug had been swallowed. […] An aliquot of blood was used for determination of PGE2 and TNF-α after LPS stimulation as described above. […] A Blood sample (6 ml), immediately prior to dosing and at 105 minutes after dosing was obtained as described above. […] A blood sample (6 ml), immediately prior to dosing and at 105 min after dosing was obtained as described above.

[4] = Healthy volunteer study: total plasma concentration of ibuprofen by HPLC; assay type: in vivo, human; conditions: SE in parentheses; for concentration at 105 min: plasma
Method: Human Healthy Volunteer Clinical Study: Volunteers with acute or chronic diseases, medical history of gastrointestinal ulcers or allergy to NSAIDs were not included. Volunteers were not permitted to receive any NSAIDs for 2 weeks before and throughout the duration of the study. The study was conducted in an open-label, crossover design with a seven-day washout period between each treatment. Volunteer 1 was given a single oral dose of 400 mg of ibuprofen (Baby Advil Suspension) with 240 mL of water. […] A Blood sample (6 ml), obtained via an indwelling catheter inserted into an arm vein, and was collected into a tube containing heparin immediately prior to an ibuprofen dosing and at the following times thereafter: 65, 105, and 115 mins. after dosing. An aliquot of blood was used for determination of PGE2 and TNF-α after LPS stimulation as described above. Plasma was separated by centrifugation at 1000 g for 10 minutes at room temperature from the remaining blood for ibuprofen assay. After seven days (washout period), the same volunteer was given a single oral dose of 100 mg ibuprofen (Baby Advil Suspension) with 240 mL of water. A 6.0 mL blood sample for the determination of PGE2 and TNF-α after LPS stimulation and for the estimation of plasma levels of ibuprofen were drawn into tubes through an indwelling cannula before dosing and at 75, 125, and 155 mins. after dosing.
Total plasma concentrations of ibuprofen were determined by high-performance liquid chromatography (HPLC.) system that consisted of a Model 510 pump, a Model 486 variable wavelength UV detector and a computer loaded with the Millenium software, all from Waters Associates (Milford, Mas). To 100 μl of plasma was added 100 μl of internal standard solution (naproxen 10 μg/ml in 65% methanol and 1% acetic acid) followed by […]. Following vortex-mixing (30 s) and centrifugation (1000 g, 5 mins.), the supernatant was evaporated to dryness, and reconstituted in 100 μl of 65% methanol and 1% acetic acid immediately prior to injection onto a reversed phase column (ρBondaPak C18) eluted with methanol:1% acetic acid (65:35), pumped at 1.0 ml min. The column eluent was monitored at 210 nm. The height of the ibuprofen peak was divided by the height of the internal standard peak and this ratio was used to determine ibuprofen concentrations from a standard curve of ibuprofen.
A Blood sample (6 ml), immediately prior to dosing and at 105 minutes after dosing was obtained as described above. Production of PGE2, 6-keto PGF1α and TNF-α after LPS stimulation and plasma concentrations were determined as described above.
A blood sample (6 ml), immediately prior to dosing and at 105 min after dosing was obtained as described above. Production of PGE2, 6-keto PGF1α and TNF-α after LPS stimulation and plasma concentrations were determined as described above.

6-keto PGF1α = assay: Healthy volunteer crossover study: 6-keto PGF1α production in LPS-stimulated blood after oral dosing; assay type: in vivo, human; conditions: single oral dose, blood 105 min after dosing, LPS stimulation, SE in parentheses
Method: Peripheral blood from healthy adult volunteers, who had not received any medication for at least 2 weeks under informed consent, was obtained by venipuncture and collected in a vacutainer blood collection tube containing heparin. Aliquots of whole blood (0.8 ml) were mixed with aspirin (50 μM) and volume was adjusted to 1 ml with PBS containing 6 mM glucose. The blood was incubated with the indicated compounds for 5 mins. at room temperature; and then stimulated with lipopolysaccharide (10 μg/ml) for 18 h at 37° C. […] PGE2 was determined after solid-phase extraction, RP-HPLC and an ELISA according to the procedures of Koeberle et al. [J Pharmacol Exp Ther. 2008; 326(3):975-82]. […] A Blood sample (6 ml), immediately prior to dosing and at 105 minutes after dosing was obtained as described above. […] A blood sample (6 ml), immediately prior to dosing and at 105 min after dosing was obtained as described above.

[5] = curcumin 10 µM, ibuprofen 20 µM
[6] = Human Volunteer 1, single oral dose, ibuprofen 50 mg (curcumin 200 mg, phosphatidylcholine 400 mg where included), 105 min after dosing
[7] = Human Volunteer 2, single oral dose, ibuprofen 40 mg (curcumin 200 mg, phosphatidylcholine 400 mg where included), 105 min after dosing

SMILES: COc1cc(/C=C/C(=O)CC(=O)/C=C/c2ccc(O)c(OC)c2)ccc1O [Curcumin]
- inhibition of PGE2 formation ([1]; curcumin 3 µM, ibuprofen 4 µM): did not inhibit PGE2 formation
- inhibition of PGE2 formation [1, 5]: no detectable inhibition
- inhibition of PGE2 compared with 6-keto PGF1α formation (FIG. 1) [1]: inhibited PGE2 more potently than 6-keto PGF1α
- suppression of ibuprofen-induced stimulation of TNF-α (TNF-α [2]; curcumin 10 µM co-incubated with ibuprofen 20 µM): suppressed the deleterious stimulation of TNF-α
- IC50 (IL-1β): 14 µM

SMILES: CC(C)Cc1ccc(C(C)C(=O)O)cc1 (stereo not shown) [Ibuprofen]
- increase in TNF-α after ibuprofen dosing (TNF-α [3]): 3.5 fold
- inhibition of PGE2 formation ([1]; curcumin 3 µM, ibuprofen 4 µM): did not inhibit PGE2 formation
- inhibition of PGE2 formation [1, 5]: 38%
- inhibition of PGE2 compared with 6-keto PGF1α formation (FIG. 1) [1]: inhibited the formation of both the prostanoids PGE2 and 6-keto PGF1α, to about the same extent
- incidence of gastric ulcers (gastric ulcers): 22.9%
- PGE2 (% inhibition) (PGE2; Human Volunteer 1, single oral dose ibuprofen 100 mg, SE in parentheses): 71 % inhibition
- PGE2 (% inhibition) (PGE2; Human Volunteer 1, single oral dose ibuprofen 400 mg, SE in parentheses): 88 (2) % inhibition
- PGE2 (% inhibition) (PGE2; Human Volunteer 1, single oral dose ibuprofen 400 mg, SE in parentheses, listed as ibuprofen): about 90 % inhibition
- PGE2 (% inhibition) (PGE2; Human Volunteer 1, single oral dose, ibuprofen 50 mg (curcumin 200 mg, phosphatidylcholine 400 mg where included), blood 105 min after dosing, SE of 3 measurements in parentheses): 56 (3) % inhibition
- PGE2 (% inhibition) (PGE2; Human Volunteer 2, single oral dose, ibuprofen 40 mg (curcumin 200 mg, phosphatidylcholine 400 mg where included), blood 105 min after dosing, SE in parentheses): 29 % inhibition
- stimulation of TNF-α (TNF-α [2]; ibuprofen 20 µM and 100 µM alone): dose-dependent stimulation of TNF-α
- Plasma ibuprofen (ug/ml) ([4]; Human Volunteer 1, single oral dose ibuprofen 100 mg): 3.0 (0.5) ug/ml
- Plasma ibuprofen ([4]; Human Volunteer 1, single oral dose ibuprofen 100 mg, listed as ibuprofen): 3.0 µg/mL
- Plasma ibuprofen (ug/ml) ([4]; Human Volunteer 1, single oral dose ibuprofen 400 mg): 44.0 (3.0) ug/ml
- Plasma ibuprofen (ug/ml) [4, 6]: 1.7 (0.15) ug/ml
- Plasma ibuprofen (ug/ml) [4, 7]: 0.42 (0.06) ug/ml
- concentration at 105 min [4, 6]: 1700 ng/mL
- concentration at 105 min [4, 7]: 420 ng/mL
- 6-keto PGF1α (% inhibition) (6-keto PGF1α; Human Volunteer 1, ibuprofen 50 mg (curcumin 200 mg, phosphatidylcholine 400 mg where included)): 61 (6) % inhibition
- 6-keto PGF1α (% inhibition) (6-keto PGF1α; Human Volunteer 2, ibuprofen 40 mg (curcumin 200 mg, phosphatidylcholine 400 mg where included)): 35 % inhibition
